Holding throughout (experiment): NCI anticancer screen, dose series, 48 h
Assay [1] has as its system MALME-3M melanoma.
The subject of assay [2] is HCC-2998 colon.
The subject of assay [3] is RPMI-8226 leukemia.
Assay [4] has as its system LOX IMVI melanoma.
Assay [5] deals with SN12C renal.
Assay [6] relates to SR leukemia.
Assay [7] relates to ACHN renal.
In assay [8] the test system is TK-10 renal.
The subject of assay [9] is M14 melanoma.
Assay [10] deals with UACC-257 melanoma.

SMILES strings stand for the structures.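 The compound was tested at five concentrations on cells cultured in 96-well plates, with a 48-hour exposure period. Abbreviation: GI50, concentration required for 50% inhibition of growth. At the TGI there is no net growth.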 Some results are limits rather than exact numbers.

This passage reports TGI and GI50 results from PubChem BioAssay (NCI).

For the molecule `C=C1C(=O)O[C@@H]2C[C@@]3(C)[C@H](O)CCC(=C)[C@@H]3C[C@H]12`, the TGI was 12.6 µM in assay [1]; 23.8 µM in [2]; 13.4 µM in assay [3]; 20.7 µM in assay [4]; 23.2 µM in [5]; 14 µM in [6]. The TGI is 27.8 µM in assay [7] and 25 µM in assay [8].

As for `CCOC(=O)c1cc(C(=O)c2ccc(OC)c(OC)c2)n2c1ccc1ccc3cccnc3c12`, the GI50 is 1.24 µM in assay [1]; 4.08 µM in assay [2]; 0.648 µM in assay [9]; 2.6 µM in [4]; 25 µM in [10]; 5.46 µM in assay [5]. The GI50 in assay [6] is 0.807 µM; in [7], 2.4 µM; in assay [8], 7.2 µM. The TGI in [1], in [2], in [9], in assay [4], in assay [10] and in assay [5] was above 100 µM in each case. Also, the TGI in [6], in assay [7] and in [8] was above 100 µM each time.

Consider `O=C([O-])c1ccc([I+]c2ccccc2)cc1`, for which the TGI in assay [1], in [2], in [3], in [9], in assay [4] and in [10] was above 100 µM each time. The TGI in assay [5], in assay [6] and in [8] was above 100 µM each time.

Turning to `CS(=O)(=O)OCCN1CCN(C(=O)c2ccc(Cl)c3c(Nc4ccc(S(=O)(=O)N=C(N)N)cc4)c4ccccc4nc23)CC1`, the TGI in [1], in [2], in assay [3], in [9], in [10] and in [5] was above 100 µM each time. The TGI in assay [6], in assay [7] and in assay [8] was above 100 µM in each case.

As to `O=C(O)c1ccccc1C(=O)c1ccco1`, the TGI in [1], in assay [2], in assay [9], in assay [4], in [10] and in [5] was above 100 µM in each case. Moreover, the TGI in assay [6], in assay [7] and in assay [8] was above 100 µM throughout.

As to `CCOC(=O)C1=C(C)N(NC(N)=O)C2(N)N(NC(N)=O)C(C)=C(C(=O)OCC)C12C#N` (centres undefined), the TGI in assay [1], in [2], in [3], in assay [9], in assay [4] and in [10] was above 100 µM each time. Further, the TGI in assay [5], in [6] and in [7] was above 100 µM each time.

As to `C/C(=C/CCC(C)[C@@H]1CC[C@]2(C)C3=C(CC[C@@]12C)[C@@]1(C)CCC(=O)C(C)(C)[C@@H]1CC3)C(=O)O` (some centres undefined), the GI50 in [1] is 1.66 µM; in assay [2], 1.1 µM; in assay [9] it was 1.1 µM; in [4], 0.961 µM; in [10], 1.56 µM; in [5], 1.21 µM. The GI50 in assay [6] is 1.14 µM; in assay [7], 1.29 µM; in assay [8], 1.45 µM. In addition, the TGI in assay [1] worked out at 3.5 µM; in assay [2] it was 2.44 µM; in assay [9] it was 2.64 µM; in [4] it was 2.49 µM; in assay [10], 3.06 µM; in [5], 2.89 µM. For the same molecule, the TGI in [6] amounted to 2.93 µM; in assay [7], 2.73 µM; in assay [8], 2.83 µM.

As for `CCN(CC)CCCC(Nc1c2ccc(Cl)cc2nc2ccc(OC)cc12)c1ccc(Cl)cc1` (centres undefined), the GI50 was 1.88 µM in [1]; 1.47 µM in [2]; 0.449 µM in assay [3]; 0.199 µM in assay [9]; 1.68 µM in assay [10]; 0.217 µM in assay [6]. Moreover, the GI50 in assay [7] was 1.38 µM; in assay [8] it was 1.62 µM. Also, the TGI in [1] came to 3.55 µM; in assay [2], 3.01 µM; in assay [3], 1.8 µM; in [9], 0.411 µM; in [10] it was 3.22 µM; in assay [6], 0.512 µM. Besides, the TGI in [7] was 2.81 µM; in assay [8] it was 3.14 µM.

Take `CCOC(=O)C[C@@]12CCCN[C@]1(C)CCc1ccccc12`: the TGI in assay [1], in [2], in [3], in assay [9], in [4] and in assay [5] was above 100 µM in each case. For the same molecule, the TGI in assay [6], in assay [7] and in assay [8] was above 100 µM each time.

With `Cc1nc2ccncc2[nH]1`, the TGI in assay [1], in [2], in assay [9], in assay [4], in assay [10] and in assay [5] was above 100 µM throughout. The TGI in [6], in [7] and in [8] was above 100 µM in each case.
